From publication PMC9002018, “The Antimicrobial Peptide MPX Can Kill Staphylococcus aureus, Reduce Biofilm Formation, and Effectively Treat Bacterial Skin Infections in Mice” (Frontiers in Veterinary Science, 2022)
Where no end group is shown, it is not given here.

Tests used:
S. aureus ATCC 25923 [1] = assay: Time-killing curve (OD600 and plate counting); assay type: cell-based, Staphylococcus aureus; settings: 37°C
Description: S. aureus was cultivated, the OD600 of the bacterial solution was adjusted to approximately 1.0, and MPX (1×MIC, 4×MIC) was added. In addition, sterile water was used as a control. The samples were incubated with shaking at 37°C. The OD600 value of the bacterial solution was measured every 1 h, and plate counting was performed at the same time to obtain the antibacterial time-killing curve of MPX against S. aureus ATCC 25923 ([15]).

A. pleuropneumoniae = settings: previous experiment of the same laboratory; cited from earlier work
Source text: S. aureus can cause a wide range of infections, which can lead to organ failure and death in severe cases. It is one of the most common pathogens in communities and hospitals worldwide. The emergence and rapid spread of methicillin-resistant S. aureus strains have produced great challenges for clinical treatment. According to reports, patients with methicillin-resistant S. aureus infection have an increased clinical risk, especially an increased risk of mortality ([18]). Therefore, we must strengthen the prevention of MDR S. aureus infection, find effective alternatives to antibiotics, and ide ...

S. aureus ATCC 25923 [2] = assay: DiSC3-5 assay for membrane potential; assay type: cell-based, Staphylococcus aureus; settings: MPX 1×MIC
Description: Overnight-cultured S. aureus ATCC 25923 was centrifuged and resuspended in sterile PBS. A DiSC3-5 solution was added to a final concentration of 1 μM. The cells were incubated in the dark for 20 min. MPX (1×MIC, 2×MIC and 4×MIC) was added. Sterile water was used as the control, and AMP ([…]/50 μg/mL) was used as the positive control. The excitation wavelength was 622 nm, the emission wavelength was 670 nm, and the fluorescence intensity was detected by a microplate reader.

S. aureus ATCC 25923 [3] = assay: BCA protein assay of bacterial supernatant (protein leakage); assay type: cell-based, Staphylococcus aureus; settings: MPX (1×MIC, 4×MIC) for 5 min, BCA kit, P < 0.01, n = 3
Description: S. aureus was cultured overnight, washed and resuspended in sterile PBS. MPX (1×MIC, 4×MIC) was added to the bacterial solution. Sterile water was added as a control. A peptide-only group was a negative control. The mixture was allowed to stand for 5 min, and the supernatant was collected after centrifugation. The effect of MPX on the permeability of S. aureus ATCC 25923 for protein was analyzed according to the instructions of the BCA kit.

[4] = test system: S. aureus ATCC 25923 biofilm; assay: Biofilm observation by SEM and confocal laser microscopy (SYTO 9/PI); assay type: cell-based, Staphylococcus aureus; settings: MPX 4×MIC added to 24 h biofilm
Description: S. aureus ATCC 25923 was cultivated as described above. After culturing in a 37°C incubator for 24 h, MPX (final concentration: 4×MIC) was added to the sample. […] S. aureus was washed 3 times with 0.85% NaCl to remove nucleic acids and other medium components. A LIVE/DEAD BacLight Bacterial Viability L-7012 Kit (Molecular Probes, Eugene, OR, USA), containing two component dyes (SYTO 9 and PI in a 1:1 mixture) in solution, was used prior to microscopy and quantitative assays according to the test instructions. A total of 3 μL of the dye mixture was added to each well, the wells were incubated at room temperature in the dark for 15 min, and the bacterial survival in the biofilm was observed by confocal laser microscopy.
A sterile slides were placed in 6-well cell culture plates and bacteria were allowed to grow naturally on the slides to form a biofilm. Overnight culture broth and fresh broth were added at a volume ratio of 1:100, and incubated at 37°C for 24 h. Different final concentrations of MPX (1×MIC, 4×MIC) were added, incubation was continued. Then, a 2.5% glutaraldehyde solution was added to each well, and the cells were fixed at room temperature for 30 min. The plate was rinsed 3 times with PBS for 10 min each time. Gradient dehydration was performed with increasing concentrations of an ethanol solution (30, 50, 70, 80, 90, 95, and 100%). […]

S. aureus ATCC 25923 [5] = assay: NPN uptake (membrane integrity); assay type: cell-based, Staphylococcus aureus; settings: MPX 0.02 μM (1×MIC), NPN 10 μM, ex 350 nm / em 420 nm, 0–10 min; comparator ampicillin 50 μg/mL
Description: S. aureus ATCC 25923 was cultured overnight in a 96-well plate. An NPN solution was added to a final concentration of 10 μM. The solutions were mixed well and incubated for 20 min. MPX (1×MIC, 4×MIC) was added to the wells. Sterile water was used as the control, and ampicillin (Amp) ([…]/50 μg/mL) was used as the positive control. The excitation wavelength was 350 nm, the emission wavelength was 420 nm, and the fluorescence intensity was detected by a microplate reader ([13]).

S. aureus [6] = assay: Stability to salt ions, pH, temperature and repeated freezing and thawing, read by agar diffusion; assay type: physicochemical, Staphylococcus aureus; settings: n = 3
Description: […] Solutions with different pH values were prepared with HCl and NaOH, producing pH values of 4, 5, 6, 7, 8, 9, 10, and MPX was incubated in these solutions for 30 min. MPX solutions were also incubated at different temperatures for 30 min (0, 25, 50, 75, and 100°C). A 1 mg/mL MPX solution was repeatedly frozen and thawed 0, 2, 4, 6, 8, 10, and 12 times. Ten microlitres of each of the peptide solutions treated as described above was collected, and the changes in the antimicrobial activity of the AMPs were detected by the agar diffusion assay.

S. aureus [7] = assay: Propidium iodide uptake (fluorescence microscopy); assay type: cell-based, Staphylococcus aureus; settings: MPX 4×MIC for 0.5 h, compared with group without peptide
Description: S. aureus was centrifuged, washed, and resuspended in sterile PBS. MPX (4×MIC) was added to the bacterial solution. The bacteria were cultured with shaking at 37°C and then centrifuged and resuspended in PBS solution. The cells were incubated with propidium iodide (PI) stain for 10 min in the dark. The suspension was fixed on a clean glass slide and observed with a fluorescence microscope.

proteinase K = proteinase K (Parengyodontium album, UniProt P06873); assay: Protease stability assay with proteinase K, read by agar diffusion; assay type: in vitro ADME; settings: MPX 1.3 μM, 37°C, 30 min
proteinase K, sequence (P06873 106-384, species assumed): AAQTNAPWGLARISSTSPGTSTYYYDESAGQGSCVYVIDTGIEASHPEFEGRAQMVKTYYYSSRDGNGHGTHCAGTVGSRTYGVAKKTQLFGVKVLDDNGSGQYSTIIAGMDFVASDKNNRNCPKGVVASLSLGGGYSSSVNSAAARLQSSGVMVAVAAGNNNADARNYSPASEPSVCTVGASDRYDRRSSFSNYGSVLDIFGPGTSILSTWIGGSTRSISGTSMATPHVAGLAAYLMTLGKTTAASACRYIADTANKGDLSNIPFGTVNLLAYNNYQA
Description: (§1) An MPX protease stability assay was performed in the following manner. MPX (1.3 μM) was mixed with equal volumes of proteinase K and trypsin at different concentrations. After incubating at 37°C for 30 min, the samples were incubated in a boiling water bath for 5 min to stop the protease reaction. The protease stability of MPX was detected by the agar diffusion assay.

S. aureus ATCC 25923 [8] = assay: Electron microscopy (SEM, TEM) of bacterial morphology; assay type: cell-based, Staphylococcus aureus
Description: A sterile slides were placed in 6-well cell culture plates and bacteria were allowed to grow naturally on the slides to form a biofilm. Overnight culture broth and fresh broth were added at a volume ratio of 1:100, and incubated at 37°C for 24 h. Different final concentrations of MPX (1×MIC, 4×MIC) were added, incubation was continued. Then, a 2.5% glutaraldehyde solution was added to each well, and the cells were fixed at room temperature for 30 min. The plate was rinsed 3 times with PBS for 10 min each time. Gradient dehydration was performed with increasing concentrations of an ethanol solution (30, 50, 70, 80, 90, 95, and 100%). After ion spray gold coating, biofilm formation was observed by scanning electron microscopy (SEM) ([17]).
Transmission electron microscopy (TEM) was used to detect the bacterial structure changes after MPX acted on S. aureus ATCC 25923. S. aureus was cultured overnight. MPX was added to different final concentrations. The cells were incubated with shaking at 37°C for 2 h, and then sodium phosphotungstate was used for negative staining. The effect of AMPs on S. aureus was observed. Centrifugation, fixation, dehydration, soaking, embedding and polymerization, sectioning and staining of the culture were performed. Finally, a transmission electron microscope was used to observe the results.

S. aureus ATCC 25923 [9] = assay: Agar diffusion test of antibacterial activity; assay type: cell-based, Staphylococcus aureus; settings: 1 mg/mL MPX, 20 μL per well, overnight at 37°C; sterile water control had no zone
Description: The agar diffusion test was used to detect the antibacterial effect of MPX on S. aureus ATCC 25923. S. aureus ATCC 25923 was cultured overnight, and the supernatant was discarded by centrifugation. The bacteria were washed with sterile PBS, and resuspended in a smaller volume to concentrate the cells. Next, 50 μL of the bacterial solution was pipetted into 15 mL of agar and shaken gently to mix. The plate was poured, a puncher was used to make holes after the agar medium had solidified and 20 μL of 1 mg/mL MPX was added to the wells. Sterile water was used as a control. The plates were incubated overnight at 37°C and the results were observed.

[10] = test system: S. aureus ATCC 25923 biofilm; assay: Crystal violet assay of biofilm formation; assay type: cell-based, Staphylococcus aureus; settings: MPX 0.5×MIC, 24 h at 37°C, p < 0.01, n = 3
Description: An overnight culture of S. aureus was inoculated into a 96-well polystyrene microtiter plate at a ratio of 1%. MPX (0.25×MIC, 0.5×MIC and 1×MIC) was added to the wells. Sterile water was used as a control. The plates were incubated at 37°C for 24 h. The microplates were then washed 3 times with sterile PBS, and the cells were fixed with 70% methanol for 30 min. Then, the cells were stained with 1% Hucker crystal violet staining solution at room temperature for 5 min. The dyeing solution was aspirated, and the cells were rinsed with water until no color remained. Images were acquired after drying. Then, 100 μL of a 70% ethanol solution was added to each well to dissolve the residual dye, and a microplate reader was used to measure the absorbance at OD570 nm ([16]).

trypsin = assay: Protease stability assay with trypsin, read by agar diffusion; assay type: in vitro ADME; settings: MPX 1.3 μM, 37°C, 30 min
Description: as §1

## INWKGIAAMAKKLL-NH2 [MPX]
S. aureus ATCC 25923 [1]; MPX 1×MIC, within 5 h
  inhibition in killing curve: relatively stable inhibition
S. aureus ATCC 25923 [1]; MPX 4×MIC, within 1 h, start OD600 approx. 1.0, plate counting, n = 3
  bacteria killed (killing curve): 99.9%
A. pleuropneumoniae
  effect of Ca2+ and Mg2+ on killing effect of MPX on A. pleuropneumoniae: significantly inhibit
S. aureus ATCC 25923 [2]; 4×MIC, DiSC3-5 1 μM, ex 622 nm / em 670 nm
  time to membrane depolarization (DiSC3-5): ≤ 10 s
S. aureus ATCC 25923 [2]; comparator AMP 50 μg/mL
  DiSC3-5 fluorescence intensity compared with antibiotic AMP: higher than that produced by the antibiotic AMP
S. aureus ATCC 25923 [3]
  total protein content of bacterial culture supernatant: significantly higher than that of the control group
[4]
  number of dead bacteria in the S. aureus biofilm (confocal, SYTO 9/PI): significantly increased
S. aureus ATCC 25923 [5]
  NPN fluorescence intensity (membrane integrity): significantly higher than that of the control group and the antibiotic AMP treatment group
S. aureus [6]; 0, 25, 50, 75 and 100°C for 30 min
  effect of temperature on antibacterial activity of MPX (thermal stability): basically no effect
S. aureus [6]; 1 mg/mL MPX frozen and thawed 0–12 times
  effect of repeated freezing and thawing on antimicrobial activity of MPX: did not change significantly
S. aureus [6]; CaCl2 50, 100, 150, 200 and 250 mmol/mL, incubated 30 min
  effect of CaCl2 on antibacterial activity of MPX: no significant effect
S. aureus [6]; KCl 50, 100, 150, 200 and 250 mmol/mL, incubated 30 min
  effect of KCl on antibacterial activity of MPX: little effect
S. aureus [6]; MgCl2 50, 100, 150, 200 and 250 mmol/mL, incubated 30 min
  effect of MgCl2 on antibacterial activity of MPX: no significant effect
S. aureus [6]; NaCl 50, 100, 150, 200 and 250 mmol/mL, incubated 30 min
  effect of NaCl on antibacterial activity of MPX: little effect
S. aureus [6]; pH 4–10 (HCl/NaOH), incubated 30 min
  effect of pH on MPX activity: basically no effect
S. aureus [7]
  number of PI-stained bacteria: significantly increased
Proteinase K; 40 μg/mL proteinase K, agar diffusion, n = 3
  effect of proteinase K on antibacterial activity: significantly reduced
Proteinase K; 100 μg/mL proteinase K, equal volumes, agar diffusion vs S. aureus ATCC 25923, n = 3
  residual antibacterial activity after proteinase K: 66.3%
S. aureus ATCC 25923 [8]; MPX 1×MIC
  bacterial morphology (SEM/TEM): shrink and leak cell contents
S. aureus ATCC 25923 [8]; MPX 4×MIC, 2 h at 37°C
  cell membrane of S. aureus (TEM): severely damaged
S. aureus ATCC 25923 [9]
  zone of inhibition (agar diffusion): produced a zone of inhibition
[10]
  S. aureus biofilm formation (crystal violet, OD570): significantly reduced
trypsin; 20 μg/mL trypsin, agar diffusion, n = 3
  effect of trypsin on antibacterial activity: significantly reduce
trypsin; 100 μg/mL trypsin, equal volumes, agar diffusion vs S. aureus ATCC 25923, n = 3
  residual antibacterial activity after trypsin: 19.6%
